Data published in patent US11479587B2, “Cationic intrinsically disordered antimicrobial peptides” (priority 2016, dated 2022).
Values joined by “and” are separate entries in the source; they are usually repeats but may differ in a detail not shown here. Identical values can stand only once. Residues, ends and D or L forms follow the SMILES beside them. No end group written: not given here.

Key:
[1] = Cytotoxicity (resazurin) assay
Description: For the cytotoxicity (resazurin) assay, HEK293 cells were counted manually in a Neubauer haemocytometer and plated at a density of 4000 cells/well into each well of the 384-well plates containing the 25×(2 μl) concentrated compounds. The medium used was Dulbecco's modified eagle medium (DMEM) supplemented with 10% foetal bovine serum (FBS). Cells were incubated together with the compounds for 20 h at 37° C., 5% CO2. To measure cytotoxicity, 5 μl (equals 100 μM final) resazurin was added to each well after incubation, and incubated for further 3 h at 37° C. with 5% CO2.
After final incubation fluorescence intensity was measured as F ex 560/10 nm, em 590/10 nm (F560/590) using a Tecan M1000 Pro monochromator plate reader. […] The concentration dependent percentage cytotoxicity was fitted to a dose response function (using Pipeline Pilot) and CC50 values determined.

Hemolysis assay = format: cell-based; conditions: for HC50 at 1 h: human, washed erythrocytes from EDTA-blood, pH 7.4
Description: For the hemolysis assays EDTA-blood was centrifuged at 800×g for 10 min, and the plasma and buffy coat were removed. The erythrocytes were washed three times and resuspended in 5% PBS, pH 7.4. The cells were then incubated with end-over-end rotation for 1 h at 37° C. in the presence of different concentrations of peptides (0, 3, 10, 30, 60 μm). 0.1% Triton X-100 (Sigma-Aldrich) served as positive control. The samples were then centrifuged at 800×g for 10 min.
The absorbance of hemoglobin release was measured at 540 nm and is expressed as % of Triton X-100-induced hemolysis. These values of triplicates were plotted with Graph Pad Prism 4 as a dose response curve and the CC50 was determined.

P. aeruginosa ATCC 10145 = test: CFU-assay, P. aeruginosa-cidal activity; format: cell-based, Pseudomonas aeruginosa
S. aureus ATCC 6538 = test: CFU-assay, S. aureus-cidal activity; format: cell-based, Staphylococcus aureus
Description: (§1) Thus, within the present invention, the antimicrobial activity is generally measured in nutrient deficient 10 mM sodium phosphate buffer pH 5.5, containing 0.25% glucose, using the CFU-assay according to Steinberg and Lehrer, 1997 (supra), unless otherwise indicated. The CFU-assay allows determination of the minimal bactericidal concentration (MBC, e.g., MBC90 and MBC100; i.e. the concentration of compound required to achieve a specified reduction in bacterial cell number (microbial death or killing)).
Various peptides corresponding to repeat domains of hornerin (HR 1-11: HRNR 2606-2628; HR 1-17: HRNR 2656-2684 and HR 1-18: HRNR 2656-2677) were tested for P. aeruginosa ATCC 10145-cidal activity in 10 mM Na-phosphate buffer pH 5.5, containing 0.25% glucose by counting the numbers of colonies of surviving bacteria at serial, twofold dilutions from 300 μg/ml down to 19 ng/ml of each peptide (CFU-assay; Steinberg and Lehrer, 1997, Methods Mol. Biol. 78, 169-186).
Staphylococcus aureus is a major skin pathogen, which causes skin infections, in particular in atopic dermatitis. The sensitivity of S. aureus ATCC 6538 towards several CIDAMPs was assessed using the CFU-assay as above (see Example 1). HR 1-18, which lacks S. aureus.-bactericidal activity, is converted in a S. aureus-cidal peptide, when all His are replaced by Arg (HR 1-18 4H-4R; see Table 13 and FIG. 9). […] HR 1-18 4H-4R is rich in Ser and Arg and contains a single Leu residue. When this single Leu was replaced by Gly in S. aureus-cidal HR 1-18 4H-4R (forming HR 1-18 4H-4R/L-G), S. aureus-cidal activity was abolished at both pH 7.0 and pH 5.5 (see Table 13 and FIG. 9).

[2] = test system: Candida albicans ATCC 24433; test: CFU-assay, Candida albicans-cidal activity; format: cell-based; conditions: pH 5.5, 1% TSB
Description: as §1, with “killing)). […]” for “killing)).”
HR 1-17 affects C. albicans ATCC 24433 with highest activity at pH 5.5 in the absence of TSB in the medium (see Tables 12, 24). […] Furthermore, the substitution of any of the Arg residues by Gly leads to a dramatic reduction or loss of candidacidal activity (see Table 24).

Q: With N=C(N)NCCC[C@H](NC(=O)[C@H](CC(=O)O)NC(=O)[C@H](CS)NC(=O)[C@H](CO)NC(=O)[C@H](CC(N)=O)NC(=O)[C@H](CO)NC(=O)[C@H](CCCNC(=N)N)NC(=O)[C@H](CCC(N)=O)NC(=O)[C@H](CCCNC(=N)N)NC(=O)[C@H](CCCNC(=N)N)NC(=O)[C@H](CS)NC(=O)[C@H](CCC(N)=O)NC(=O)[C@H](Cc1c[nH]cn1)NC(=O)[C@H](CO)NC(=O)[C@H](CCCNC(=N)N)NC(=O)[C@H](Cc1ccccc1)NC(=O)[C@H](Cc1c[nH]cn1)NC(=O)[C@H](CCCNC(=N)N)NC(=O)[C@H](Cc1c[nH]cn1)NC(=O)[C@H](Cc1c[nH]cn1)NC(=O)[C@@H](N)CO)C(=O)O [LCE3C55-75] (H-SHHRHFRSHQCRRQRSNSCDR-OH) as the molecule, how does the CC50 [1] read?
A: > 32 µg/mL

Q: What about the HC50 (Hemolysis assay) of the same molecule?
A: > 300 µg/mL

Q: With NHHRRHHRCR [LCE3D55-64] as the molecule, how does the CC50 [1] read?
A: > 32 µg/mL

Q: With CCCCCCCCCCCCCCCC(=O)NCC(=O)N[C@H](CCCCN)C(=O)NCC(=O)N[C@H](CCCCN)C(=O)O [D-Pal-GK4, D-Pal-GKDGKD] (HELM PEPTIDE1{[CCCCCCCCCCCCCCCC(=O)[*:2]].G.[dK].G.[dK]}$$$$V2.0) as the molecule, how does the CC50 [1] read?
A: > 32 µg/mL

Q: And the HC50 (Hemolysis assay)?
A: 40 µg/mL

Q: With SHHRPRLFHRHRH [LCE2A70-82] as the molecule, how does the CC50 [1] read?
A: > 32 µg/mL

Q: Which CC50 [1] does the source give for HAHSGHGQSTQRGSRTAGR [FLG-22082-2100] here?
A: > 12.9 µM

Q: What about the HC50 at 1 h (Hemolysis assay) of the same molecule?
A: > 121 µM

Q: What does the source list for CCCCCCCCCCCCCCCC(=O)NCC(=O)N[C@H](CCCNC(=N)N)C(=O)NCC(=O)N[C@H](CCCNC(=N)N)C(=O)O [D-Pal-GR4, Pal-GRDGRD] (HELM PEPTIDE1{[CCCCCCCCCCCCCCCC(=O)[*:2]].G.[dR].G.[dR]}$$$$V2.0)?
A: CC50 [1]: > 32 µg/mL; HC50 (Hemolysis assay): 300 µg/mL

Q: With GRRGSGLGRSSSRGGRGSGSGR [HR 1-18 4H-4R] as the molecule, how does the MBC90 (P. aeruginosa ATCC 10145; pH 5.0, 0.25% glucose) read?
A: 0.038 µg/mL

Q: What about the MBC100 (P. aeruginosa ATCC 10145; pH 5.0, 0.25% glucose) of the same molecule?
A: 0.15 µg/mL

Q: What about the “P. aeruginosa MBC90” value (P. aeruginosa ATCC 10145; pH 5.5) of the same molecule?
A: 0.018 µM

Q: And the “P. aeruginosa MBC100” value (P. aeruginosa ATCC 10145; pH 5.5)?
A: 0.142 µM

Q: And the MBC90 (P. aeruginosa ATCC 10145; pH 6.0, 0.25% glucose)?
A: 2.35 µg/mL

Q: And the MBC100 (P. aeruginosa ATCC 10145; pH 6.0, 0.25% glucose)?
A: 4.7 µg/mL

Q: And the MBC90 (P. aeruginosa ATCC 10145; pH 6.5, 0.25% glucose)?
A: 2.35 µg/mL

Q: And the MBC100 (P. aeruginosa ATCC 10145; pH 6.5, 0.25% glucose)?
A: 4.7 µg/mL

Q: And the MBC90 (P. aeruginosa ATCC 10145; pH 7.0, 0.25% glucose)?
A: 2.38 µg/mL and 2.35 µg/mL

Q: And the MBC100 (P. aeruginosa ATCC 10145; pH 7.0, 0.25% glucose)?
A: 9.38 µg/mL

Q: What about the MBC90 (S. aureus ATCC 6538; pH 5.5, 0.25% glucose) of the same molecule?
A: 150 µg/mL

Q: And the MBC100 (S. aureus ATCC 6538; pH 5.5, 0.25% glucose)?
A: >300 µg/mL

Q: What about the “S. aureus MBC90” value (S. aureus ATCC 6538; pH 7.0) of the same molecule?
A: 4.46 µM

Q: What about the “S. aureus MBC100” value (S. aureus ATCC 6538; pH 7.0) of the same molecule?
A: >143 µM

Q: And the MBC90 (S. aureus ATCC 6538; pH 7.0, 0.25% glucose)?
A: 9.35 µg/mL and 9.375 µg/mL

Q: What about the MBC100 (S. aureus ATCC 6538; pH 7.0, 0.25% glucose) of the same molecule?
A: >300 µg/mL

Q: And the max.killing (S. aureus ATCC 6538; pH 7.0, 0.25% glucose)?
A: max.killing: 98.8%

Q: And the CC50 [1]?
A: > 15.2 µM

Q: And the HC50 at 1 h (Hemolysis assay)?
A: > 150 µM

Q: Which MBC90 (P. aeruginosa ATCC 10145; pH 5.0, 0.25% glucose) does the source give for “GRHGSGLGHSSSHGQHGSGSGRSSSGGPY (Modified peptide derived from human hornerin (HR 1-17 R2681G))” here?
A: 0.0375 µg/mL

Q: What about the MBC100 (P. aeruginosa ATCC 10145; pH 5.0, 0.25% glucose) of the same molecule?
A: 0.15 to 0.3 µg/mL

Q: And the MBC90 [2]?
A: 300 µg/mL

Q: What about the MBC100 [2] of the same molecule?
A: >300 µg/mL

Q: Which results are given for SHHRHFRSHQCRR [LCE3C55-67]?
A: CC50 [1]: > 32 µg/mL; HC50 (Hemolysis assay): > 300 µg/mL

Q: For GRRGGRGGRGRGR [GR13], which CC50 [1] is on record?
A: > 23.6 µM

Q: What about the HC50 at 1 h (Hemolysis assay) of the same molecule?
A: > 220 µM

Q: Which CC50 [1] does the source give for CCCCCCCCCCCCCCCC(=O)NCC(=O)N[C@@H](CCCCN)C(=O)NCC(=O)N[C@@H](CCCCN)C(=O)O [Pal-GK4, Pal-GKGK] (HELM PEPTIDE1{[CCCCCCCCCCCCCCCC(=O)[*:2]].G.K.G.K}$$$$V2.0) here?
A: > 32 µg/mL

Q: And the HC50 (Hemolysis assay)?
A: 50 µg/mL

Q: For SHHRPRLFHRRRH [LCE2B74-86], which CC50 [1] is on record?
A: > 32 µg/mL

Q: And the HC50 (Hemolysis assay)?
A: > 300 µg/mL

Q: For CCCCCCCCCCCCCCCC(=O)NCC(=O)N[C@H](CCCNC(=N)N)C(=O)N[C@H](CCCNC(=N)N)C(=O)NCC(=O)NCC(=O)N[C@H](CCCNC(=N)N)C(=O)NCC(=O)NCC(=O)N[C@H](CCCNC(=N)N)C(=O)O [D-Pal-GR9] (HELM PEPTIDE1{[CCCCCCCCCCCCCCCC(=O)[*:2]].G.[dR].[dR].G.G.[dR].G.G.[dR]}$$$$V2.0), which CC50 [1] is on record?
A: > 32 µg/mL

Q: What about the HC50 (Hemolysis assay) of the same molecule?
A: > 100 µg/mL
